From ChEMBL document CHEMBL5046270, “A Selective and Orally Bioavailable Quinoline-6-Carbonitrile-Based Inhibitor of CDK8/19 Mediator Kinase with Tumor-Enriched Pharmacokinetics” (J Med Chem, 2022) come the findings set out here.

The nature of data set [1]: Inhibition of NF kappa B dependent CDK8/CDK19 in HEK293 cell incubated for 3 hrs in presence of TNF-alpha by Spectra max microtitre plate reader. Format: cell-based. The settings on record: Homo sapiens, HEK293, 3 h.
Data set [2] addresses T1, Cyclin-C/Cyclin-dependent kinase 19 (Homo sapiens) (UniProt Q9BWU1+P24863). The data set is described as follows: Binding affinity to recombinant human CDK19/cyclinC assessed as mean residence time by TR FRET based assay. The class given is protein-complex assay.
Data set [3] concerns the target T1, Cyclin-C/Cyclin-dependent kinase 19 (Homo sapiens). The experiment in a line: Binding affinity to recombinant human CDK19/cyclinC assessed as half life by TR FRET based assay. The class given is protein-complex assay.
The next data set concerns HEK293. The data set is described as follows: Effect of compound on HEK293 cells assessed as mRNA expression in CDK8/19 dependent MYC gene in presence of pretreatment with TNFalpha for 2 hr by qPCR analysis. The settings on record: Homo sapiens. The class given is functional, cell-based.
Data set [4] is described as follows: Plasma C0 in BALB/c mouse xenografted with mouse CT26 cells at 2.5 mg/kg, iv by LC-MS/MS analysis. Format: ADME, organism-based.
Data set [5] is described as follows: Elimination rate constant in plasma of BALB/c mouse xenografted with mouse CT26 cells at 100 mg/kg, po by LC-MS/MS analysis. The class given is ADME, organism-based.
Data set [6] in a line: Oral bioavailability in plasma of BALB/c mouse xenografted with mouse CT26 cells at 100 mg/kg by LC-MS/MS. Format: ADME, organism-based.
A short description of data set [7]: Oral bioavailability in tumor of BALB/c mouse xenografted with mouse CT26 cells at 100 mg/kg by LC-MS/MS. Format: ADME, organism-based, Neoplasm.
For data set [8], the system named is CT26. The data set is described as follows: Downregulation of CCL12 gene expression in BALB/c mouse xenografted with mouse CT26 cells at 100 mg/kg, po 2 to 12 hrs […]. Format: functional, organism-based. The settings on record: time 2-12 hrs, TDE = time-dependent effect.
In data set [9] the test system is CT26. The data set is described as follows: Downregulation of KLF2 gene expression in BALB/c mouse xenografted with mouse CT26 cells at 100 mg/kg, po 2 to 12 hrs […]. The settings on record: time 2-12 hrs, TDE = time-dependent effect. Format: functional, organism-based.
Data set [10] can be described thus: Drug accumulation in lung of BALB/c mouse bearing CT26 tumor model at 100 mg/kg, po for 7 days by LC-MS/MS analysis. The class given is ADME, organism-based. The settings on record: in vivo, 168 h, time 7 day.
Data set [11] is described as follows: AUC (0-24hrs) in plasma of BALB/c mouse xenografted with mouse CT26 cells at 2.5 mg/kg, iv by LC-MS/MS analysis. Format: ADME, organism-based. Further details: time < 24 hr, route intravenous, dose 2.5 mg/kg. The settings on record: in vivo.
Data set [12] can be described thus: Half life in tumor of BALB/c mouse xenografted with mouse CT26 cells at 100 mg/kg, po by LC-MS/MS analysis. The class given is ADME, organism-based, Neoplasm.

Activity calls are given as the source filed them. No cut-off for these calls is given here.

Consider `CN1CCN(C(=O)c2ccc3cc(CCNc4ccnc5ccc(C#N)cc45)ccc3c2)CC1`, for which, in [1], the IC50 was 56 nM. Moreover, the MRT in data set [2] was 4.25 min. In addition, the T1/2 in data set [3] came out at 4.25 min. Further, the result with HEK293 was Active. Also, the C0 in data set [4] was determined as 503 ng/mL. The same compound showed a k el in [5] of 5.56e-05 s⁻¹. The bioavailability amounted to 16.5% in [6] and 34.6% in [7]. The Activity result with CT26 [8] and with CT26 [9] was “Tde” each time. The Drug uptake entry in [10] is “Active”. In data set [11], this compound came in with an AUC of 331 ng·h/mL. In addition, in data set [12], the half-life is 436 min.
